In patent US9121859B2, “Compounds and methods for determination of FKBP-binding immunosuppressant drugs” (Siemens Healthcare Diagnostics Inc., priority 2012, dated 2015):

Tests used:
[1] = tested on: endogenous specific binding proteins (FKBP) in whole blood; test: ACMIA assay for sirolimus: release of sirolimus from endogenous binding substances in spiked whole blood by releasing agent; details: for Drug concentration measured / Percent (%) displaced vs. SIRO: releasing agent 10 μg/mL
Procedure: (§1) Testing was carried out using the DIMENSION® RxL analyzer, available from Siemens Healthcare Diagnostics Inc., Newark Del. The instrument was employed using ACMIA immunoassay technology. The ACMIA assay method is described in U.S. Pat. Nos. 7,842,475, 7,186,518, 5,147,529, 5,128,103, 5,158,871, 4,661,408, 5,151,348, 5,302,532, 5,422,284, 5,447,870, and 5,434,051, the disclosures of which are incorporated herein in their entirety. In the embodiment of the ACMIA method used herein and discussed in more detail below, competition between tacrolimus analog on chrome particles and tacrolimus in patient samples for antibody for tacrolimus conjugated to an enzyme (the “conjugate”) is utilized to determine the amount of tacrolimus in patient samples. Conjugate that binds to the tacrolimus analog on chrome particles is removed by magnetic separation. The enzymatic activity from the conjugate remaining in the supernatant is measured and is directly proportional to the amount of tacrolimus in the patient sample. […] The enzymatic activity observed when no chrome particle is present is indicative of the total amount of enzymatic activity in the conjugate.
(§2) Preparation of pretreatment reagent solution. This pretreatment solution was prepared to contain an amount of releasing agent, 6.8 mg/mL PIPES 1.5 sodium salt (buffer), 0.3 mg/mL EDTA disodium (clot prevention agent), 1.0 mg/mL saponin (hemolytic agent), 0.2% PROCLIN® 300 (preservative), 0.024 mg/mL neomycin sulfate (preservative) and 0.99 mg/mL NaN3, pH 6.5. The amount of releasing agent in each of the pretreatment reagent solutions was 10 μg/mL. The releasing agent concentration in the final reaction mixture was equivalent to 46.7 μg/mL of the analog added from the sample.
Preparation of anti-sirolimus antibody-β-galactosidase conjugate. […] The antibody conjugate solution contained approximately 7.5 μg/mL anti-sirolimus antibody-β-galactosidase conjugate, 30 mg/mL protease free bovine serum albumin, 0.126 mg/mL MgCl2, 0.03 mL/mL of ethylene glycol, 35.14 mg/mL PIPES 1.5 sodium salt, 50 mg/mL NaCl and beta-gal mutein (inactivated β-galactosidase), pH 6.5.
Magnetic chrome particle preparation. Sirolimus chrome particles (immunoassay solid phase) were prepared by conjugating sirolimus-biotin conjugate to streptavidin-coated chrome particle (prepared in a manner similar to that described in U.S. Pat. No. 7,842,475). The chrome particle reagent contained approximately 2.5 mg/mL sirolimus chrome particle slurry, 60.8 mg/mL trehalose dihydrate and 7.2 mg/mL CARBOWAX®.
(§3) Preparation of samples. Aliquots of a whole blood pool are spiked with an amount of sirolimus so that the resulting concentration of sirolimus in the whole blood samples in the calibrators is as set forth in Table 1 (0.0, 5.1, 10.1, 20.6 and 31.6 ng/mL). Aliquots of a whole blood pool are spiked with an amount of tacrolimus so that the resulting concentration of […] (0.0, 2.6, 5.3, 11.6 and 30.1 ng/mL).
(§4) Pretreatment of samples. A set of samples was treated as follows: To each sample was added an amount of the pretreatment reagent solution from above for displacing sirolimus in the sample from endogenous specific binding proteins. The samples were incubated at 37° C. for a period of 140 minutes. Subsequently, each sample was subjected to the aforementioned assay, which is further described below; and signal (mAU) was measured and related to a concentration of analyte that represents the amount of free analyte (analyte that is not bound by endogeneous binding substances plus analyte that was displaced from endogeneous binding substances) in the samples.
Assay. The ACMIA assay for sirolimus was carried out as follows: 15 μL of a whole blood sample from above was mixed with the pretreatment reagent solution from above (Displacer) (Table 1) in a vessel on the DIMENSION® RxL analyzer.

[2] = tested on: monoclonal anti-sirolimus antibody (clone 155-M1); test: Calculated cross-reactivity of releasing agent with antibody of the sirolimus ACMIA assay; type: binding; details: for Calculated antibody cross-reactivity (percent (%) times 100): sirolimus assay, measured at calibrator of 0 ng/mL, measured value/46.7 μg/mL analog; for Cross-reactivity with the sirolimus assay antibody: result in words
Procedure: (§5) Preparation of anti-sirolimus antibody-β-galactosidase conjugate. Monoclonal anti-sirolimus antibody (clone 155-M1 from Wyeth Pharmaceutical) was conjugated to β-galactosidase using a standard heterobifunctional SMCC (succinimidyl trans-4-(N-maleimidylmethyl)cyclohexane-1-carboxylate) linker according to known techniques. The antibody conjugate solution contained approximately 7.5 μg/mL anti-sirolimus antibody-β-galactosidase conjugate, 30 mg/mL protease free bovine serum albumin, 0.126 mg/mL MgCl2, 0.03 mL/mL of ethylene glycol, 35.14 mg/mL PIPES 1.5 sodium salt, 50 mg/mL NaCl and beta-gal mutein (inactivated β-galactosidase), pH 6.5.
(§6) Anti-sirolimus antibody-β-galactosidase conjugate (50 μL) was added next to each of the reaction vessels and the mixture was held for a period of time (10 to 15 minutes) and at a temperature of 43° C. to allow sirolimus, if present, to react with the antibody reagent. Chrome particles with immobilized sirolimus-biotin conjugate to streptavidin-coated chrome particle were added (50 μL) to each of the reaction vessels and were allowed to bind un-bound conjugate. […] The sirolimus-bound conjugate was detected by transferring the supernatant from each of the reaction vessels to a photometric cuvette and measuring the enzymatic rate of the conjugate in the presence of chlorophenol red-β-D-galactopyranoside (CPRG). The rate for each reaction vessel was measured bichromatically at 577 and 700 nm. The results are summarized in Table 1 under the categories: instrument signal observed for calibrators, drug concentration measured in ng/mL, percent (%) displaced vs. SIRO and calculated antibody cross-reactivity (percent (%) times 100). Cross-reactivity was based on the following: • 1) 70 μL of pretreatment reagent solution was added to the reaction medium versus 15 μL of sample, total reaction mixture volume=305 μL. • 2) 10 μg/mL of SIRO analog was in the pretreatment reagent solution. • 3) 10 μg/mL of SIRO analog from pretreatment reagent is equivalent to 46.7 μg/mL of SIRO analog added from sample (Calculation: 70 μL×10 μg/mL/15 μL=46.7 μg/mL) • 4) Measured sirolimus value at 0 ng/mL calibrator. • 5) Measure value/46.7 is % cross-reactivity.

[3] = tested on: endogenous specific binding proteins (FKBP) in whole blood; test: ACMIA assay for tacrolimus: release of tacrolimus from endogenous binding substances in spiked whole blood by releasing agent; details: for Drug concentration measured / Percent (%) displaced vs. SIRO: releasing agent 10 μg/mL
Procedure: as §1, §2
as §5, with “anti-tacrolimus” for “anti-sirolimus”, “1H6, see for example U.S. Pat. No. 7,078,495) is” for “155-M1 from Wyeth Pharmaceutical) was”, “contains” for “contained”
The chrome particle reagent contained approximately 2.5 mg/mL tacrolimus chrome particle slurry, 60.8 mg/mL trehalose dihydrate and 7.2 mg/mL CARBOWAX®.
as §3, §4
The above format for releasing an analyte (using the concentration of releasing agent (Displacer) shown) and conducting an assay for the analyte was repeated for samples containing tacrolimus.

[4] = tested on: monoclonal anti-tacrolimus antibody (clone 1H6); test: Calculated cross-reactivity of releasing agent with antibody of the tacrolimus ACMIA assay; type: binding; details: measured at calibrator of 0 ng/mL
Procedure: as §5, with “anti-tacrolimus” for “anti-sirolimus”, “1H6, see for example U.S. Pat. No. 7,078,495) is” for “155-M1 from Wyeth Pharmaceutical) was”, “contains” for “contained”
as §6, with “reagent.” for “reagent. Chrome particles with immobilized sirolimus-biotin conjugate to streptavidin-coated chrome particle were added (50 μL) to each of the reaction vessels and were allowed to bind un-bound conjugate.”, “cross-reactivity. […]” for “cross-reactivity.”

[5] = sirolimus assay, result in words
[6] = sirolimus calibrator 10.1 ng/mL
[7] = sirolimus calibrator 20.6 ng/mL
[8] = sirolimus calibrator 31.6 ng/mL
[9] = tacrolimus assay, result in words
[10] = tacrolimus calibrator 0.0 ng/mL
[11] = tacrolimus calibrator 2.6 ng/mL
[12] = tacrolimus calibrator 5.3 ng/mL
[13] = tacrolimus calibrator 11.6 ng/mL
[14] = tacrolimus calibrator 30.1 ng/mL

| Compound | Displacement efficiency compared with mixture of V and VI [1, 5] | Drug concentration measured ([1]; sirolimus calibrator 0.0 ng/mL) | Drug concentration measured ([1]; sirolimus calibrator 5.1 ng/mL) | Percent (%) displaced vs. SIRO ([1]; sirolimus calibrator 5.1 ng/mL) | Drug concentration measured [1, 6] | Percent (%) displaced vs. SIRO [1, 6] | Drug concentration measured [1, 7] | Percent (%) displaced vs. SIRO [1, 7] | Drug concentration measured [1, 8] | Percent (%) displaced vs. SIRO [1, 8] | Calculated antibody cross-reactivity (percent (%) times 100) [2] | Drug concentration measured [3, 10] | Drug concentration measured [3, 11] | Percent (%) displaced vs. SIRO [3, 11] | Drug concentration measured [3, 12] | Percent (%) displaced vs. SIRO [3, 12] | Drug concentration measured [3, 13] | Percent (%) displaced vs. SIRO [3, 13] | Drug concentration measured [3, 14] | Percent (%) displaced vs. SIRO [3, 14] | also measured |
| --- | --- | --- | --- | --- | --- | --- | --- | --- | --- | --- | --- | --- | --- | --- | --- | --- | --- | --- | --- | --- | --- |
| C=CC[C@@H]1/C=C(\C)C[C@H](C)C[C@H](OC)[C@H]2O[C@@](O)(C(=O)C(=O)N3CCCC[C@H]3C(=O)O[C@H](/C(C)=C/[C@@H]3CC[C@@H](O)[C@H](OC)C3)[C@H](C)[C@@H](O)CC1=O)[C@H](C)C[C@@H]2OC [Tacro, tacrolimus] | lower displacement efficiency | -0.1 ng/mL | 2.6 ng/mL | 52% | 4.1 ng/mL | 40% | 7.7 ng/mL | 38% | 13.0 ng/mL | 41% | 0.00 % × 100 | – | – | – | – | – | – | – | – | – | – |
| CO[C@H]1C[C@@H]2CC[C@@H](C)[C@@](O)(O2)C(=O)C(=O)N2CCCC[C@H]2C(=O)O[C@H]([C@H](C)C[C@@H]2CC[C@@H](O)[C@H](OC)C2)CC(=O)[C@H](C)/C=C(\C)[C@@H](O)[C@@H](OC)C(=O)[C@H](C)C[C@H](C)CCCCCC1C (stereo partly shown) [XI, hydrogenated sirolimus] | lower displacement efficiency | 72.7 ng/mL | 82.5 ng/mL | 1622% | 96.4 ng/mL | 951% | 94.0 ng/mL | 458% | 85.2 ng/mL | 269% | 15.56 % × 100 | 0.3 ng/mL | 1.8 ng/mL | 68% | 2.9 ng/mL | 54% | 5.6 ng/mL | 48% | 16.0 ng/mL | 53% | Cross-reactivity with the sirolimus assay antibody [2]: higher cross-reactivity; Displacement efficiency compared with mixture of V and VI [3, 9]: lower displacement efficiency; Calculated antibody cross-reactivity (percent (%) times 100) [4]: 0.06 % × 100 |
| Diels-Alder adducts of 4-phenyl-1,2,4-triazoline-3,5-dione (PTAD) and sirolimus [Mixture V + VI] | – | 1.4 ng/mL | 5.8 ng/mL | 114% | 9.7 ng/mL | 96% | 16.8 ng/mL | 82% | 27.5 ng/mL | 87% | 0.29 % × 100 | 0.6 ng/mL | 2.9 ng/mL | 111% | 4.7 ng/mL | 89% | 9.5 ng/mL | 82% | 23.5 ng/mL | 78% | Suitability as releasing agent for sirolimus analyte [1, 5]: suitable as a releasing agents; Suitability as releasing agent for tacrolimus analyte [3, 9]: suitable as a releasing agents; Calculated antibody cross-reactivity (percent (%) times 100) [4]: 0.13 % × 100 |
| Diels-Alder adducts of diethyl azidodicarboxylate (DAC) and sirolimus [Mixture IX + X] | lower displacement efficiency | 69.2 ng/mL | 93.8 ng/mL | 1844% | 100.7 ng/mL | 994% | 119.9 ng/mL | 584% | 113.0 ng/mL | 357% | 14.82 % × 100 | 0.0 ng/mL | 2.4 ng/mL | 90% | 4.1 ng/mL | 78% | 9.2 ng/mL | 79% | 22.6 ng/mL | 75% | Cross-reactivity with the sirolimus assay antibody [2]: higher cross-reactivity; Displacement efficiency compared with mixture of V and VI [3, 9]: lower displacement efficiency; Calculated antibody cross-reactivity (percent (%) times 100) [4]: 0.01 % × 100 |
